# Reference: patent publication US20220241264A1, “METHODS FOR PREVENTION AND TREATMENT OF FIBROMYALGIA BY CONTACT VASODILATORS” (priority 2019, published 2022)
# Tested on: fibromyalgia pain in soft tissue regions and myofacial regions
# Conditions: for patient-reported pain levels in the treated regions: daily use in a topical form on skin adjacent to regions where pain is experienced, during treatment; for patient-reported pain levels after treatment is halted: treatment halted after several months, report weeks later
# Excerpt: The following prophetic examples are of cases that address the painful experiences associated with fibromyalgia. The examples also describe a new, safe, simple and until now, an unknown pharmaceutical solution to the problem of fibromyalgia syndrome: the novel use of vasodilators such as calcium channel blockers, ACE inhibitors, and angiotensin receptor blockers. Vasodilators are not analgesics, but they resolve or mitigate the pain associated with fibromyalgia.
# A patient is diagnosed with fibromyalgia, and suffers from pain in soft tissue regions and myofacial regions. […] After several months, treatment is halted.
# A patient is diagnosed with fibromyalgia, and suffers from pain in soft tissue regions and myofacial regions. Daily use of Amlodipine in a topical form is prescribed for application to skin adjacent to regions where pain is experienced. […] After several months, treatment is halted.
# A patient is diagnosed with fibromyalgia, and suffers from pain in soft tissue regions and myofacial regions. Daily use of enalapril in a topical form is prescribed for application to skin adjacent to regions where pain is experienced. […] After several months, treatment is halted.
# A patient is diagnosed with fibromyalgia, and suffers from pain in soft tissue regions and myofacial regions. Daily use of lisinopril in a topical form is prescribed for application to skin adjacent to regions where pain is experienced. […] After several months, treatment is halted.
# A patient is diagnosed with fibromyalgia, and suffers from pain in soft tissue regions and myofacial regions. Daily use of losartan in a topical form is prescribed for application to skin adjacent to regions where pain is experienced. […] After several months, treatment is halted.
# A patient is diagnosed with fibromyalgia, and suffers from pain in soft tissue regions and myofacial regions. Daily use of irbesartan in a topical form is prescribed for application to skin adjacent to regions where pain is experienced. […] After several months, treatment is halted.
Compound,patient-reported pain levels in the treated regions,patient-reported pain levels after treatment is halted
CCCCC1=NC2(CCCC2)C(=O)N1Cc1ccc(-c2ccccc2-c2nnn[nH]2)cc1 [irbesartan],reduction in pain levels,reduction in pain levels has been maintained
CCOC(=O)[C@H](CCc1ccccc1)N[C@@H](C)C(=O)N1CCC[C@H]1C(=O)O [enalapril],reduction in pain levels,reduction in pain levels has been maintained
NCCCC[C@H](N[C@@H](CCc1ccccc1)C(=O)O)C(=O)N1CCC[C@H]1C(=O)O [lisinopril],reduction in pain levels,reduction in pain levels has been maintained
CCCCc1nc(Cl)c(CO)n1Cc1ccc(-c2ccccc2-c2nn[nH]n2)cc1 [losartan],reduction in pain levels,reduction in pain levels has been maintained
